# Experiment: Treatment-emergent adverse events (TEAEs), TRESR
# Assay type: in vivo, human
# Experimental: Tolerability and safety of camonsertib was evaluated by assessment of AEs, TEAEs, serious adverse events (SAEs), DLTs, concomitant medications and procedures, physical examinations, vital sign measurements, clinical safety laboratory evaluations (hematology, chemistry and urinalysis), ECOG performance status scores and electrocardiograms.
# All safety and efficacy endpoints were summarized with descriptive statistics. Safety data were summarized using the safety population, which consisted of all patients who received at least one dose of RP-3500. The DLT rate was based on the DLT-evaluable population, which included those patients in dose-escalation cohorts (M1a and M1b only) receiving ≥80% of planned doses of camonsertib, who completed all required safety evaluations and were observed through the end of cycle 1 or patients who experienced a DLT. Due to the different number of dose levels expected and the exploratory nature of the phase 1 study, anti-tumor activity parameters were primarily based on patients who received ≥1 dose of RP-3500 and had ≥1 post-baseline tumor assessment by RECIST 1.1 and/or GCIG CA-125 or PCWG3 PSA criteria, with an initial dose level of >100 mg d^−1 (dose level predicted to achieve efficacious exposure), as defined in the statistical analysis plan. Additional subgroups based on tumor types or genotypes of interest were based on this efficacy analysis set. […] Patients were, therefore, enrolled in the study and endpoints assessed regardless of sex, gender and race. No formal statistical tests were performed in this study. However, nominal P values (two-sided) were provided for the hypothesis-generating purpose of selected exploratory endpoints, without adjusting for multiplicity. A log-rank test was used in between-group comparisons for the time-to-event endpoints (PFS and DOT), and Fisher’s exact test was used in between-group comparisons for the binary endpoints (CBR, MR, etc.).
# [1] = 3/4 schedule (n = 95), all grades
# [2] = 3/4 schedule (n = 95), grade 3+
# [3] = 5/2 schedule (n = 25), all grades
# [4] = 5/2 schedule (n = 25), grade 3+
structure (smiles),measurement,setting,value
C[C@@H]1COCCN1c1cc([C@]2(O)C[C@H]3CC[C@@H](C2)O3)c2cnn(-c3cc[nH]n3)c2n1 [camonsertib],Any TEAE,[1],92 (96.8) n (%)
same,TEAE: Abdominal pain,[1],15 (15.8) n (%)
same,TEAE: Anemia,[1],63 (66.3) n (%)
same,TEAE: Blood creatinine increased,[1],8 (8.4) n (%)
same,TEAE: Constipation,[1],13 (13.7) n (%)
same,TEAE: Decreased appetite,[1],21 (22.1) n (%)
same,TEAE: Diarrhea,[1],20 (21.1) n (%)
same,TEAE: Dizziness,[1],11 (11.6) n (%)
same,TEAE: Dyspnea,[1],18 (18.9) n (%)
same,TEAE: Fatigue,[1],34 (35.8) n (%)
same,TEAE: Nausea,[1],31 (32.6) n (%)
same,TEAE: Neutrophil count decreased/neutropenia,[1],27 (28.4) n (%)
same,TEAE: Platelet count decreased/ thrombocytopenia,[1],25 (26.3) n (%)
same,TEAE: Vomiting,[1],16 (16.8) n (%)
same,TEAE: White blood cell count decreased,[1],11 (11.6) n (%)
same,Any TEAE,[2],51 (53.7) n (%)
same,TEAE: Abdominal pain,[2],0 n (%)
same,TEAE: Anemia,[2],28 (29.5) n (%)
same,TEAE: Blood creatinine increased,[2],0 n (%)
same,TEAE: Constipation,[2],0 n (%)
same,TEAE: Decreased appetite,[2],0 n (%)
same,TEAE: Diarrhea,[2],0 n (%)
same,TEAE: Dizziness,[2],0 n (%)
same,TEAE: Dyspnea,[2],2 (2.1) n (%)
same,TEAE: Fatigue,[2],2 (2.1) n (%)
same,TEAE: Nausea,[2],3 (3.2) n (%)
same,TEAE: Neutrophil count decreased/neutropenia,[2],13 (13.7) n (%)
same,TEAE: Platelet count decreased/ thrombocytopenia,[2],8 (8.4) n (%)
same,TEAE: Vomiting,[2],3 (3.2) n (%)
same,TEAE: White blood cell count decreased,[2],4 (4.2) n (%)
same,Any TEAE,[3],25 (100.0) n (%)
same,TEAE: Abdominal pain,[3],3 (12.0) n (%)
same,TEAE: Anemia,[3],21 (84.0) n (%)
same,TEAE: Blood creatinine increased,[3],4 (16.0) n (%)
same,TEAE: Constipation,[3],5 (20.0) n (%)
same,TEAE: Decreased appetite,[3],6 (24.0) n (%)
same,TEAE: Diarrhea,[3],3 (12.0) n (%)
same,TEAE: Dizziness,[3],2 (8.0) n (%)
same,TEAE: Dyspnea,[3],8 (32.0) n (%)
same,TEAE: Fatigue,[3],10 (40.0) n (%)
same,TEAE: Nausea,[3],8 (32.0) n (%)
same,TEAE: Neutrophil count decreased/neutropenia,[3],6 (24.0) n (%)
same,TEAE: Platelet count decreased/ thrombocytopenia,[3],8 (32.0) n (%)
same,TEAE: Vomiting,[3],4 (16.0) n (%)
same,TEAE: White blood cell count decreased,[3],3 (12.0) n (%)
same,Any TEAE,[4],19 (76.0) n (%)
same,TEAE: Abdominal pain,[4],0 n (%)
same,TEAE: Anemia,[4],14 (56.0) n (%)
same,TEAE: Blood creatinine increased,[4],0 n (%)
same,TEAE: Constipation,[4],0 n (%)
same,TEAE: Decreased appetite,[4],0 n (%)
same,TEAE: Diarrhea,[4],0 n (%)
same,TEAE: Dizziness,[4],0 n (%)
same,TEAE: Dyspnea,[4],0 n (%)
same,TEAE: Fatigue,[4],1 (4.0) n (%)
same,TEAE: Nausea,[4],0 n (%)
same,TEAE: Neutrophil count decreased/neutropenia,[4],4 (16.0) n (%)
same,TEAE: Platelet count decreased/ thrombocytopenia,[4],3 (12.0) n (%)
same,TEAE: Vomiting,[4],0 n (%)
same,TEAE: White blood cell count decreased,[4],0 n (%)
